Results: ChEMBL document CHEMBL1153978, “8-[2-(4-Aryl-1-piperazinyl)ethyl]-2H-1,4-benzoxazin-3(4H)-ones: dual-acting 5-HT1 receptor antagonists and serotonin reuptake inhibitors--part II” (Bioorg Med Chem Lett, 2009)

How the values were obtained:
[1] = Oral bioavailability in rat 1 mg/kg; type: ADME, organism-based; conditions: in vivo
[2] = Volume of distribution at steady state in rat at 0.5 mg/kg, iv and 1 mg/kg, po; type: ADME, organism-based; conditions: in vivo, read-out: Vdss
[3] = Half life in rat at 0.5 mg/kg, iv and 1 mg/kg, po; type: ADME, organism-based; conditions: in vivo
[4] = Ratio of drug level in rat brain to plasma at 0.5 mg/kg, iv and 1 mg/kg, po; type: ADME, organism-based
Liver microsomes = test: Intrinsic clearance in human liver microsomes; type: ADME, Microsome
[5] = Clearance in rat blood at 0.5 mg/kg, iv and 1 mg/kg, po; type: ADME, organism-based; conditions: whole blood

SMILES	bioavailability [1]	Vd [2]	half-life [3]	Kp [4]	CL (Liver microsomes)	clearance [5]
Cc1ccc2c(N3CCN(CCc4cccc5c4OCC(=O)N5C)CC3)cc(F)cc2n1	41%	2.1 L/kg	1.4 h	1.1	3.2 mL/min/g	21 mL/min/kg
Cc1ccc2c(N3CCN(CCc4cccc5c4OCC(=O)N5)CC3)cccc2n1	63%	3.4 L/kg	5.2 h	–	1 mL/min/g	8 mL/min/kg
Cc1ccc2c(N3CCN(CCc4cccc5c4OCC(=O)N5C)[C@@H](C)C3)cccc2n1	31%	1.9 L/kg	0.8 h	1.9	3.5 mL/min/g	44 mL/min/kg
Cc1ccc2c(N3CCN(CCc4ccc5c(c4)N(C)C(=O)CO5)CC3)cccc2n1	–	2.7 L/kg	–	–	1.1 mL/min/g	–
Cc1ccc2c(N3CCN(CCc4cccc5c4OCC(=O)N5C)CC3)cccc2n1	26%	1.7 L/kg	1 h	–	2.4 mL/min/g	29 mL/min/kg
Cc1ccc2c(N3CCN(CCc4ccc5c(c4)NC(=O)CO5)CC3)cccc2n1	–	2 L/kg	–	–	< 0.5 mL/min/g	–
Cc1ccc2c(N3CCN(CCCc4cccc5c4OCC(=O)N5C)CC3)cccc2n1	–	5.2 L/kg	1.5 h	2.9	2.1 mL/min/g	55 mL/min/kg
